Data reported in US7304174B2, “CaSR antagonist” (Japan Tobacco Inc., priority 2003, dated 2007).

Tests used:
bone resorption = assay: Concomitant administration of test compound and estrogen: bone resorption marker blood ICTP; type: in vivo, ovariectomized rats; conditions: for Blood ICTP concentration: mean ± S.D., n = 5
Method: The 13-week-old ovariectomized rats were divided into 4 groups of a control group (Group A), an estrogen administration group (Group B), a test compound administration group (Group C), and a test compound and estrogen concomitant administration group (Group D). One sham control group (E group) subjected to a sham surgery was also established. Estradiol was dissolved in 5% benzyl alcohol-corn oil and subcutaneously administered to an estrogen administration groups (Group B and Group D) at the dose of 10 μg/kg. 5% Benzyl alcohol-corn oil was subcutaneously administered to groups (Group A and Group C) free from administration of estrogen. The compound of Example 1-1 was suspended in 0.5% methyl cellulose solution and orally administered to groups (Group C and Group D) to be administered with the test compound at the dose of 3 mg/kg. As regards the groups (Group A and Group B) free from administration of the test compound, 0.5% methyl cellulose solution was orally administered. On day 13 from the start of the administration, the blood was drawn in each group from the tail vein, and serum was obtained. ICTP, which is a blood bone resorption marker, was measured using a commercially available ELISA kit (“RatLaps ELISA kit”, Nordic Bioscience Diagnostics).

PTH secretion = PTH secretion action, Experimental Example 2 (serum PTH after oral administration); type: in vivo, male SD rats; conditions: test compound administration group, 1 mg/5 ml/kg oral, rats fasted 20 hr
Method: The test compound was orally administered to 5 to 9-week-old male SD rats (Charles River Japan, Inc.) fasted for 20 hr, using a solvent (0.5% methyl cellulose solution) at a dose of 1 mg/5 ml/kg. A solvent alone was orally administered to the control group at a dose of 5 ml/kg. The blood was drawn from the tail vein immediately before and, 15 min, 30 min, 60 min and 120 min after the administration of the test compound, and serum was obtained. The serum PTH concentration was measured using rat PTH ELISA kit (Amersham Biosciences).

human calcium receptor = target: T1, human calcium receptor (Homo sapiens, UniProt P41180); assay: Evaluation of antagonistic action on calcium receptor using reporter gene (luciferase); type: cell-based; conditions: transformed rat adrenal derived cells, 5 mM calcium chloride, culture 4 hrs, luciferase activity; read-out: Reporter gene assay (IC50, concentration showing 50% inhibitory rate)
T1 construct: expressed in transfected cells; host or cells: cell strain derived from rat adrenal, co-transformed with luciferase cDNA
T1 sequence (P41180 20-1078): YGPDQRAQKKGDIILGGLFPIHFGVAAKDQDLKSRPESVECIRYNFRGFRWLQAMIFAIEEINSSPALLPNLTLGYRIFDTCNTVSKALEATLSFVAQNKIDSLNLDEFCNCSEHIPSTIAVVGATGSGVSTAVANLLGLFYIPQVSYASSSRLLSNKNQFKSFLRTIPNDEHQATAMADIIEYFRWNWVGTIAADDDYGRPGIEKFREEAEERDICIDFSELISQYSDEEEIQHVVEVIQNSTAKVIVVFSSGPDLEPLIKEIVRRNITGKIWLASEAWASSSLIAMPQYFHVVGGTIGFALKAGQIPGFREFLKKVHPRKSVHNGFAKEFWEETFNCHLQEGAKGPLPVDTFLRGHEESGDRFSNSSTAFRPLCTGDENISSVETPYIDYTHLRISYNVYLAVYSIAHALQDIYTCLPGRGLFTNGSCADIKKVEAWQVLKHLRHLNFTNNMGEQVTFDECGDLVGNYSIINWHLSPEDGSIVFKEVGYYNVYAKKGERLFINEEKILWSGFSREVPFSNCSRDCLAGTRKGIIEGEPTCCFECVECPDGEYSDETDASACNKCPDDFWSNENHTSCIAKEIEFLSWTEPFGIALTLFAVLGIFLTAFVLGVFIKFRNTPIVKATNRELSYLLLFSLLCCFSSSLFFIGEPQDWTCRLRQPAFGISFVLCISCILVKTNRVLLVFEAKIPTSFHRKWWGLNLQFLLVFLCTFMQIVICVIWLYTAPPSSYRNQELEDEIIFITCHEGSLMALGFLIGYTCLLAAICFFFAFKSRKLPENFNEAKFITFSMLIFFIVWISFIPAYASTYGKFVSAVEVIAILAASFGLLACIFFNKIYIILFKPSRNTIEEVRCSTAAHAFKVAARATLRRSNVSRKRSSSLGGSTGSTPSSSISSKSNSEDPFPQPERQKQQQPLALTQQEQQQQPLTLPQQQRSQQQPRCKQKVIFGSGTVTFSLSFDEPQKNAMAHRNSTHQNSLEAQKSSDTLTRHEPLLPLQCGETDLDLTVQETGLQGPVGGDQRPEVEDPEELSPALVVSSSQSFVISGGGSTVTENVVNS
Summary of the method: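 Rat adrenal-derived cells transfected with luciferase and human calcium receptor cDNA, in F12 with 0.5% dialyzed horse serum and 0.25% dialyzed fetal bovine serum. Luciferase luminescence gave % inhibition vs control and blank; IC50 at 50% inhibition.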

Q: What does the source list for `Cc1ccc(CC(C)(C)NC[C@@H](O)CO[C@H](C)c2ccccc2-c2ccc(C(=O)O)c(C)c2)cc1F` [Example 1-1, 2′-[(1R)-[(2R)-3-[[1-(3-Fluoro-4-methylphenyl)-2-methylpropan-2-yl]amino]-2-hydroxypropoxy]ethyl]-3-methylbiphenyl-4-carboxylic acid]?
A: Effect of concomitant administration on suppression of ICTP increase by estrogen (bone resorption; Table 65, concomitant with estrogen): did not show changes in the ability to suppress estrogen; Blood ICTP concentration (bone resorption; day 13, Group D: Example 1-1 3 mg/kg oral and estradiol 10 μg/kg s.c. concomitant): 21.77 ± 3.34 ng/mL; Blood ICTP concentration (bone resorption; day 13, exclusive administration (Group B estradiol 10 μg/kg s.c.; Group C Example 1-1 3 mg/kg oral)): 26.10 ± 3.45 ng/mL; Serum PTH concentration 15 min later (PTH secretion; 15 min): 43.9 ± 2.0 pg/mL; Serum PTH concentration 30 min later (PTH secretion; 30 min): 25.0 ± 3.2 pg/mL; Serum PTH concentration 60 min later (PTH secretion; 60 min): 17.9 ± 2.0 pg/mL; Serum PTH concentration 120 min later (PTH secretion; 120 min): 14.8 ± 1.6 pg/mL; IC50 (human calcium receptor): 24 nM
